Key:
[1] = biological target: Dual specificity mitogen-activated protein kinase kinase 2 (Homo sapiens, UniProt P36507); assay: Inhibition of MAP2K2
[2] = biological target: Phosphatidylinositol 4,5-bisphosphate 3-kinase catalytic subunit beta isoform (Homo sapiens, UniProt P42338); assay: Inhibition of PIK3Cb
[3] = tested on: Mus musculus; assay: Antiarthritic activity against collagen-induced arthritis mouse model assessed as inhibition of disease progression at 3 mg/kg, po BID for 14 days; type: functional; settings: 336 h
[4] = biological target: Casein kinase I isoform epsilon (Homo sapiens, UniProt P49674); assay: Inhibition of CSNK1E
[5] = biological target: Tyrosine-protein kinase Fyn (Homo sapiens, UniProt P06241); assay: Inhibition of FYN
Sequence of Tyrosine-protein kinase Fyn (P06241 whole entry): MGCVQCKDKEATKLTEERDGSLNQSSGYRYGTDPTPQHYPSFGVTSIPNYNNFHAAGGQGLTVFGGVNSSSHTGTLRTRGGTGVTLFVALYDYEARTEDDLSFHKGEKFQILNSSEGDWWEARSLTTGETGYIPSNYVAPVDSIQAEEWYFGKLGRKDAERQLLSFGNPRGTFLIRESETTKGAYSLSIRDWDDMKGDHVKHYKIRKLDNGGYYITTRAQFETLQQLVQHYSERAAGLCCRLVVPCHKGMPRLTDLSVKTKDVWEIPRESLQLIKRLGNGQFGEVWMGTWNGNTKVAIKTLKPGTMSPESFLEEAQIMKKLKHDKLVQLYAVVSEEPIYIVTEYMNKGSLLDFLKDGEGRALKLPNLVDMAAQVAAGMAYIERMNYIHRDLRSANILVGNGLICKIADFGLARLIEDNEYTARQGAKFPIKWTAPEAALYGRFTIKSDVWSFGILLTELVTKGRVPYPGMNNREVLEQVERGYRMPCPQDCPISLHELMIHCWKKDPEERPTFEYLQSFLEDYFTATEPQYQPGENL

[6] = AUC in rat […] at 5 mg/kg, po; 1 mg/kg, iv; type: ADME, organism-based
[7] = Oral bioavailability in Wistar rat at 5 mg/kg; 1 mg/kg, iv; settings: in vivo
[8] = biological target: Cyclin-dependent kinase 5 (Homo sapiens, UniProt Q00535); assay: Inhibition of CDK5
[9] = biological target: Serine/threonine-protein kinase PLK4 (Homo sapiens, UniProt O00444); assay: Inhibition of PLK4
Sequence of Serine/threonine-protein kinase PLK4 (O00444 whole entry): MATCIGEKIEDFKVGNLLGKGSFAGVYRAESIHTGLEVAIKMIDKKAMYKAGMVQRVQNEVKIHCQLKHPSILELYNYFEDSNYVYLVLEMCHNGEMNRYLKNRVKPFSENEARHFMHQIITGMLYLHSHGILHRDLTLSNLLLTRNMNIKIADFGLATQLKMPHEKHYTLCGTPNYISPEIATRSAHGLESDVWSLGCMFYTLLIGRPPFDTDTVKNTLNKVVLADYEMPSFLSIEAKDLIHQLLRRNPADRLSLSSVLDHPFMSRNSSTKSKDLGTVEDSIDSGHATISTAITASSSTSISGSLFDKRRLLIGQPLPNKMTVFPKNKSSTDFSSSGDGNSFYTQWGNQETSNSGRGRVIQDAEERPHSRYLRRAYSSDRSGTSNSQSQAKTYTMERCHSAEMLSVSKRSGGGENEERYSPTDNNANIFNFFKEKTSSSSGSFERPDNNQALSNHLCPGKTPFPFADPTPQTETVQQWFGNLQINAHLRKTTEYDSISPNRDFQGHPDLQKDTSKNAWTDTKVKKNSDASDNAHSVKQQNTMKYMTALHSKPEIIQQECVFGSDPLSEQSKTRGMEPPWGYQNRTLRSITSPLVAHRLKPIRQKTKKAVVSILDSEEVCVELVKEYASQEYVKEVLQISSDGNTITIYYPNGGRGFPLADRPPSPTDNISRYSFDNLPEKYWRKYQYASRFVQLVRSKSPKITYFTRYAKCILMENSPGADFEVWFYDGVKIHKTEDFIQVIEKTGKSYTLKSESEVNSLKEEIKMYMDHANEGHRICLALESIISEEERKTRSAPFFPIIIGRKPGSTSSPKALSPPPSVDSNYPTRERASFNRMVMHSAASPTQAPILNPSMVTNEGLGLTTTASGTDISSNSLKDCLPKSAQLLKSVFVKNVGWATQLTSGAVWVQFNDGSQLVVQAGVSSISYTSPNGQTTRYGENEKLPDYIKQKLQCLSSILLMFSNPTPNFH

[10] = biological target: Calcium/calmodulin-dependent protein kinase type II subunit gamma (Homo sapiens, UniProt Q13555); assay: Inhibition of CAMK2G
[11] = biological target: Protein kinase C theta type (Homo sapiens, UniProt Q04759); assay: Inhibition of PRKCQ
Sequence of Protein kinase C theta type (Q04759 whole entry): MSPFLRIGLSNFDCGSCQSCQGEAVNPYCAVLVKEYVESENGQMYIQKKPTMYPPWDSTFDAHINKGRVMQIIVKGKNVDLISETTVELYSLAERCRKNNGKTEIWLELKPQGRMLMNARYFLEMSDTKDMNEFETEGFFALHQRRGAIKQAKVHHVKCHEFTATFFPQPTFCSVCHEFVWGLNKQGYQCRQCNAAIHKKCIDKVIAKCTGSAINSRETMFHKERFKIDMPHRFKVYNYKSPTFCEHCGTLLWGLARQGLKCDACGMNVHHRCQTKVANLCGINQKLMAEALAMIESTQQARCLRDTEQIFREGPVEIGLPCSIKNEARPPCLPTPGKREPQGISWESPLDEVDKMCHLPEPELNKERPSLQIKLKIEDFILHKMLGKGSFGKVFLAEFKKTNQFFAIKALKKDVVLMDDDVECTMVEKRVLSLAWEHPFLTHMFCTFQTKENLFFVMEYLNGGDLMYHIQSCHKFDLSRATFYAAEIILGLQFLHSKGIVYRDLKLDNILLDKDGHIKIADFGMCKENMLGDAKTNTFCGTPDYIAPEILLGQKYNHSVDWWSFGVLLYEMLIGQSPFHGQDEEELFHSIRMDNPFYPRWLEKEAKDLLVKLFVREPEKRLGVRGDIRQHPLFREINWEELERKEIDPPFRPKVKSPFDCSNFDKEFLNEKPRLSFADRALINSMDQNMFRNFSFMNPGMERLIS

[12] = biological target: Scaffold protein ILK (Homo sapiens, UniProt Q13418); assay: Inhibition of ILK
Sequence of Scaffold protein ILK (Q13418 whole entry): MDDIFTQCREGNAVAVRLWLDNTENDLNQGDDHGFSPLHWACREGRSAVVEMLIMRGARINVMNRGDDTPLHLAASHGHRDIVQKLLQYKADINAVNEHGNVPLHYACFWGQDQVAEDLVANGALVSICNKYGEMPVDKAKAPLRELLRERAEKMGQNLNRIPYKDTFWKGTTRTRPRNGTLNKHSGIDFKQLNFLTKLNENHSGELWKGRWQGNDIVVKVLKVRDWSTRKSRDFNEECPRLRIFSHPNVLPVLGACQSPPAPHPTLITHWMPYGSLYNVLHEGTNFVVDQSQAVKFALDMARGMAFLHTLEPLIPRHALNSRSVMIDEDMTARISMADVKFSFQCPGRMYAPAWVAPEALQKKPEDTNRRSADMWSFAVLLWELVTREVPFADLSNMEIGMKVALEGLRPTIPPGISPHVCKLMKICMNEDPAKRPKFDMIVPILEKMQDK

[13] = biological target: Dual specificity testis-specific protein kinase 1 (Homo sapiens, UniProt Q15569); assay: Inhibition of TESK1
[14] = biological target: Mitogen-activated protein kinase 11 (Homo sapiens, UniProt Q15759); assay: Inhibition of MAPK11
[15] = biological target: Phosphatidylinositol 4,5-bisphosphate 3-kinase catalytic subunit delta isoform/gamma isoform (Homo sapiens, UniProt P48736+O00329); assay: Inhibition of PI3Kgamma/delta by neutrophil migration assay
[16] = biological target: 5'-AMP-activated protein kinase catalytic subunit alpha-2 (Homo sapiens, UniProt P54646); assay: Inhibition of PRKAA2
[17] = biological target: Phosphatidylinositol 4-kinase alpha (Homo sapiens, UniProt P42356); assay: Inhibition of PIK4Ca
[18] = biological target: Hepatocyte growth factor receptor (Homo sapiens, UniProt P08581); assay: Inhibition of MET
[19] = biological target: Tyrosine-protein kinase Lck (Homo sapiens, UniProt P06239); assay: Inhibition of LCK
[20] = biological target: Protein kinase C delta type (Homo sapiens, UniProt Q05655); assay: Inhibition of PRKCD
[21] = biological target: Mitogen-activated protein kinase kinase kinase 1 (Homo sapiens, UniProt Q13233); assay: Inhibition of MAP3K1
[22] = biological target: Serine/threonine-protein kinase TAO2 (Homo sapiens, UniProt Q9UL54); assay: Inhibition of TAOK2
[23] = biological target: Serine/threonine-protein kinase A-Raf (Homo sapiens, UniProt P10398); assay: Inhibition of ARAF
Sequence of Serine/threonine-protein kinase A-Raf (P10398 whole entry): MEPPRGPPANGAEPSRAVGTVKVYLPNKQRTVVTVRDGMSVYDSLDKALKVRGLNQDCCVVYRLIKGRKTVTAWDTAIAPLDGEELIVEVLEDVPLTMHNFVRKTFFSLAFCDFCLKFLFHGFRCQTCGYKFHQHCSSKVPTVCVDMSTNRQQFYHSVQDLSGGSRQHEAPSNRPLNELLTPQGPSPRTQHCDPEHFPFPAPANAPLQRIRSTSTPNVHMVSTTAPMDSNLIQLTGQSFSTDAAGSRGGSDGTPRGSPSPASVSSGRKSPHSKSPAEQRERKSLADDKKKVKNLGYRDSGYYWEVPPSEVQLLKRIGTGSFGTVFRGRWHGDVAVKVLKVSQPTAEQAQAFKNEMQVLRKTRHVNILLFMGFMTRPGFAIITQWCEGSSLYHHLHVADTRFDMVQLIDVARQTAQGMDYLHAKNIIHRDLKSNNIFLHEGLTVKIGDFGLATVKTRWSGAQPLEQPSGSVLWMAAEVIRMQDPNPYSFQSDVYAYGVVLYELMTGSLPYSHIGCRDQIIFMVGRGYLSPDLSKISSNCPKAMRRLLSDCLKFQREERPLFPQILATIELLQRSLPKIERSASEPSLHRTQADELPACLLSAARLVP

[24] = tested on: Mus musculus; assay: Antiarthritic activity against collagen-induced arthritis mouse model assessed as mean clinical arthritis score with AUC calculation in at 0.01 mg/kg, po BID for 14 days; type: functional
[25] = biological target: Activin receptor type-2B (Homo sapiens, UniProt Q13705); assay: Inhibition of ACVR2B
[26] = tested on: Mus musculus; assay: Antiarthritic activity against collagen-induced arthritis mouse model assessed as mean clinical arthritis score with AUC calculation in at 3 mg/kg, po BID for 14 days; type: functional
[27] = biological target: Serine/threonine-protein kinase Nek9 (Homo sapiens, UniProt Q8TD19); assay: Inhibition of NEK9
[28] = tested on: Mus musculus; assay: Antiinflammatory activity in mouse air pouch model assessed as effect on IL-8-induced migration of granulocytes into air pouch at 1 mg/kg, po; type: functional
[29] = biological target: Cytochrome P450 2C9 (Homo sapiens, UniProt P11712); assay: Inhibition of CYP2C9 at >20 uM; type: ADME
[30] = biological target: Cyclin-G-associated kinase (Homo sapiens, UniProt O14976); assay: Inhibition of GAK
[31] = biological target: Voltage-gated inwardly rectifying potassium channel KCNH2 (Homo sapiens, UniProt Q12809); assay: Inhibition of human ERG at >250 uM by patch clamp method
[32] = biological target: Activated CDC42 kinase 1 (Homo sapiens, UniProt Q07912); assay: Inhibition of TNK2
[33] = biological target: Serine/threonine-protein kinase MARK2 (Homo sapiens, UniProt Q7KZI7); assay: Inhibition of MARK2
Sequence of Serine/threonine-protein kinase MARK2 (Q7KZI7 whole entry): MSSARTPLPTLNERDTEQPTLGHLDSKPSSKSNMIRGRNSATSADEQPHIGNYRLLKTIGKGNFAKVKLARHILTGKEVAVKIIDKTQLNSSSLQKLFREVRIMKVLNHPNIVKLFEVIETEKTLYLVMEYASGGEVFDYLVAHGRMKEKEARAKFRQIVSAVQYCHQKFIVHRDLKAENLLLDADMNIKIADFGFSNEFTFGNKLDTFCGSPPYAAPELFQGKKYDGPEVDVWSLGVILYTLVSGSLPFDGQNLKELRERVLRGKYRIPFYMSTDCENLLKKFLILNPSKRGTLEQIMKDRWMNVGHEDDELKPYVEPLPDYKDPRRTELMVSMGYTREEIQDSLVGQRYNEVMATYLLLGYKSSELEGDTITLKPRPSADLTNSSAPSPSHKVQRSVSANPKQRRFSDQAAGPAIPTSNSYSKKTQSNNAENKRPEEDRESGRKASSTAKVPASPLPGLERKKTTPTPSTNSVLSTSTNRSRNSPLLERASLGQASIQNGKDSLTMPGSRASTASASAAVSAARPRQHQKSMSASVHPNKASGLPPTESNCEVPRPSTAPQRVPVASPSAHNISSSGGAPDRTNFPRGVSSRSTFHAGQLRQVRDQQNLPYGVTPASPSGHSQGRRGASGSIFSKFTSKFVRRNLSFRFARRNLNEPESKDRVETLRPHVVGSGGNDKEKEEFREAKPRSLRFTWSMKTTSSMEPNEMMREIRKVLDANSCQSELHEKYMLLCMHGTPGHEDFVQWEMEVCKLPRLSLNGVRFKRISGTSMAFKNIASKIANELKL

[34] = biological target: Wee1-like protein kinase (Homo sapiens, UniProt P30291); assay: Inhibition of WEE1
[35] = biological target: Cytochrome P450 2C19 (Homo sapiens, UniProt P33261); assay: Inhibition of CYP2C19 at >20 uM; type: ADME
[36] = biological target: Serine/threonine-protein kinase Nek2 (Homo sapiens, UniProt P51955); assay: Inhibition of NEK2
[37] = biological target: Dual specificity protein kinase CLK2 (Homo sapiens, UniProt P49760); assay: Inhibition of CLK2
[38] = biological target: Cyclin-dependent kinase 7 (Homo sapiens, UniProt P50613); assay: Inhibition of CDK7
[39] = biological target: Maternal embryonic leucine zipper kinase (Homo sapiens, UniProt Q14680); assay: Inhibition of MELK
[40] = biological target: Serine/threonine-protein kinase mTOR (Homo sapiens, UniProt P42345); assay: Inhibition of mTOR
[41] = biological target: Mitogen-activated protein kinase 1 (Homo sapiens, UniProt P28482); assay: Inhibition of MAPK1
[42] = Volume of distribution at steady state […] at 5 mg/kg, po; 1 mg/kg, iv; type: ADME, organism-based; settings: read-out: Vdss
[43] = biological target: Casein kinase I isoform alpha (Homo sapiens, UniProt P48729); assay: Inhibition of CSNK1A1
[44] = biological target: Ephrin type-B receptor 6 (Homo sapiens, UniProt O15197); assay: Inhibition of EPHB6
[45] = biological target: Casein kinase II subunit alpha (Homo sapiens, UniProt P68400); assay: Inhibition of CSNK2A1
[46] = biological target: Ephrin type-A receptor 2 (Homo sapiens, UniProt P29317); assay: Inhibition of EPHA2
Sequence of Ephrin type-A receptor 2 (P29317 whole entry): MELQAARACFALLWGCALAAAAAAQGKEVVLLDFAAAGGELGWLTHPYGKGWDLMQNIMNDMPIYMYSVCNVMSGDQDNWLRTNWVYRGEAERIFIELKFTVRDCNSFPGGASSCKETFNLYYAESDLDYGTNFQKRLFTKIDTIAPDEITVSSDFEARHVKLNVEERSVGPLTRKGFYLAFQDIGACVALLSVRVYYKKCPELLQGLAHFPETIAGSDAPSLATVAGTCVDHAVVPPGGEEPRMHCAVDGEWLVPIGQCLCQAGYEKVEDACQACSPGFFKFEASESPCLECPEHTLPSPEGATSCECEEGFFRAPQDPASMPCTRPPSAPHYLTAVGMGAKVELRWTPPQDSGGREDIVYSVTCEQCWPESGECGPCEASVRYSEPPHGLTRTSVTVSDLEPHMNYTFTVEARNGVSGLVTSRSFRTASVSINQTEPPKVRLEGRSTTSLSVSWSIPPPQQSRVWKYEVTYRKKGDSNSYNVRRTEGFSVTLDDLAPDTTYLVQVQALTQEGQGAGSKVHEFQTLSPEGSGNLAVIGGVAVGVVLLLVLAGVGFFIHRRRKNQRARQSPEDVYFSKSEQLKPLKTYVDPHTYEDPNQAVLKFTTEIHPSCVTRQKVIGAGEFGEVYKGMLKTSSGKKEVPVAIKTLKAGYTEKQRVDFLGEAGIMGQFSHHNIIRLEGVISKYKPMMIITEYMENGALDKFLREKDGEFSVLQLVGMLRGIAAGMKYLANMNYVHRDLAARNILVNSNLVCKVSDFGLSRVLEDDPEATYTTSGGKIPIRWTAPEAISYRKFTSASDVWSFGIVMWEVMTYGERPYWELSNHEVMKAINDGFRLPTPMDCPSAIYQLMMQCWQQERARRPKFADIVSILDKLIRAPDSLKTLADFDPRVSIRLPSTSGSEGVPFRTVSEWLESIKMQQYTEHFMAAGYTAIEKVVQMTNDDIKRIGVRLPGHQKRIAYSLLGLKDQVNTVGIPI

[47] = biological target: Non-receptor tyrosine-protein kinase TYK2 (Homo sapiens, UniProt P29597); assay: Inhibition of TYK2
[48] = biological target: Serine/threonine-protein kinase NLK (Homo sapiens, UniProt Q9UBE8); assay: Inhibition of NLK
[49] = biological target: Activin receptor type-1 (Homo sapiens, UniProt Q04771); assay: Inhibition of ACVR1
[50] = biological target: Protein-tyrosine kinase 6 (Homo sapiens, UniProt Q13882); assay: Inhibition of PTK6
[51] = biological target: Activin receptor type-1B (Homo sapiens, UniProt P36896); assay: Inhibition of ACVR1B
[52] = biological target: Protein kinase C beta type (Homo sapiens, UniProt P05771); assay: Inhibition of PRKCB
[53] = biological target: Tyrosine-protein kinase Fer (Homo sapiens, UniProt P16591); assay: Inhibition of FER

- IC50 [1]: > 10 µM
- IC50 [2]: 0.49 µM
- IC50 [4]: > 10 µM
- IC50 [5]: > 10 µM
- AUC [6]: 15.3 µM·h
- bioavailability [7]: 81%
- IC50 [8]: > 10 µM
- IC50 [9]: > 10 µM
- IC50 [10]: > 10 µM
- IC50 [11]: > 10 µM
- IC50 [12]: > 10 µM
- IC50 [13]: > 10 µM
- IC50 [14]: > 10 µM
- pIC50 [15]: 6.3
- IC50 [16]: > 10 µM
- IC50 [17]: > 5.89 µM
- IC50 [18]: > 10 µM
- IC50 [19]: > 10 µM
- IC50 [20]: > 10 µM
- IC50 [21]: > 10 µM
- IC50 [22]: > 10 µM
- IC50 [23]: > 10 µM
- IC50 [25]: > 10 µM
- inhibition (INH) [29]: Active
- IC50 [30]: > 10 µM
- IC50 [32]: > 10 µM
- IC50 [33]: > 10 µM
- IC50 [34]: > 10 µM
- inhibition (INH) [35]: Active
- IC50 [36]: > 10 µM
- IC50 [37]: > 10 µM
- IC50 [38]: > 10 µM
- IC50 [39]: > 10 µM
- IC50 [40]: > 10 µM
- IC50 [41]: > 10 µM
- Vd [42]: 1.3 L/kg
- IC50 [43]: 9.12 µM
- IC50 [44]: > 10 µM
- IC50 [45]: > 10 µM
- IC50 [46]: > 10 µM
- IC50 [47]: > 10 µM
- IC50 [48]: > 10 µM
- IC50 [49]: > 10 µM
- IC50 [50]: > 10 µM
- IC50 [51]: > 10 µM
- IC50 [52]: > 10 µM
- IC50 [53]: > 10 µM
SMILES: CC(C)(C)NS(=O)(=O)c1cncc(-c2ccn3nc(N)nc3c2)c1
- inhibition in vivo at 3 mg/kg [3]: 41%
- Activity [24]: 94%
- Activity [26]: 30%
- IC50 [27]: > 10 µM
- Activity [28]: 18%
- inhibition (INH) [31]: Not Active
